Measurements published in publication PMC10058949, “Effect of N-Terminal Peptide Modifications on In Vitro and In Vivo Properties of ^177Lu-Labeled Peptide Analogs Targeting CCK2R” (Pharmaceutics, 2023).

Experiments:
[1] = Biodistribution 4 h p.i. in A431-CCK2R/A431-mock xenografted BALB/c nude mice; type: in vivo; conditions: female, BALB/c nude, mouse, in vivo, iv, 20 pmol, total radioactivity
Protocol: (§1) Then, after 7–11 days, when visible tumor xenografts were formed, groups of 5 mice were injected intravenously via a lateral tail vein with ~0.5 MBq of radiolabeled peptide, corresponding to 20 pmol of peptide, in a total volume of ~150 µL in PBS/0.5% BSA. Using an additional mouse per group, a blocking study was performed by co-injecting a 1000-fold molar excess of the respective peptide analog (20 nmol) together with the radiolabeled peptide. For quantification, a 1:1, 1:10 and 1:50 standard was prepared using aliquots of the injection solution mixed with PBS/0.5% BSA. Mice were euthanized by cervical dislocation 4 h after injection. Subsequently, a blood sample was collected, and different tissues were dissected. All samples, as well as the rest of the body were weighed, and the activity measured in the γ-counter together with the standard. Results were expressed as percentage of injected activity per gram of tissue (%IA/g).

[2] = tested on: A431-CCK2R/A431-mock xenografted BALB/c nude mice; experiment: as above; type: in vivo; conditions: mouse, in vivo
Protocol: as §1

[3] = Biodistribution blocking experiment with 1000-fold excess of non-radiolabeled peptide; type: in vivo, mice; conditions: female, BALB/c nude, mouse, in vivo, iv, total radioactivity, blocking
Protocol: as §1

in vivo = experiment: in vivo; parameters: species or system mice; conditions: female, BALB/c nude, mouse, iv, 20 pmol, total radioactivity
Excerpt: (§2) Based on these preliminary studies, [^177Lu]Lu-2 was selected for further biodistribution studies evaluating the tumor uptake and tissue distribution for up to 7 days after injection. This study was approved by the Nijmegen Medical Center animal ethics committee (RUDEC) and the Dutch animal ethics committee (CCD) of the Radboud University (2020–0007-020). Female BALB/c nude mice were inoculated with A431-CCK2R cells at an age of 8–10 weeks (n = 20). When tumor xenografts were formed, mice were injected intravenously via a lateral tail vein with ~1 MBq of [^177Lu]Lu-2, corresponding to 20 pmol of peptide, in a total volume of 200 µL in PBS/0.5% BSA. For quantification, a 1% standard was used. At different time points of 1 h, 24 h, 3 days, and 7 days after injecton, animals were euthanized by CO2/O2-asphyxiation and a blood sample was immediately drawn, and tissues of interest (spleen, pancreas, stomach, intestine, kidneys, liver, heart, lung, muscle, femur, A431-CCK2R tumor, and A431-mock tumor) were dissected. All collected samples were weighed and measured in the γ-counter together with the standard. Results were expressed as percentage of injected activity per gram of tissue (%IA/g), and tumor-to-organ activity ratios were calculated for selected tissues. For dose-limiting organs, kidneys and stomach, dosimetry estimates were calculated using Olinda-EXM (version 2.2, Vanderbilt University) and standard weights for humans (male and female). For this purpose, the % IA/g determined in mice was extrapolated to humans using the following equation: % IA per organ in humans=[%IA/gin mice×mass of mice (kg)]×(mass of human organ (g)/total body mass of human (kg))

[4] = tested on: A431-CCK2R xenografted BALB/c nude mice; experiment: in vivo; conditions: mouse
Excerpt: as §2

[5] = parameters: species or system human
Excerpt: as §2, with “At different time points of 1 h, 24 h, 3 days, and 7 days after injecton, animals were euthanized by CO2/O2-asphyxiation and a blood sample was immediately drawn, and tissues of interest (spleen, pancreas, stomach, intestine, kidneys, liver, heart, lung, muscle, femur, A431-CCK2R tumor, and A431-mock tumor) were dissected.” left out, “(kg)) […]” for “(kg))”

[6] = uptake in A431-CCK2R xenografts
[7] = female, BALB/c nude, iv, 20 pmol, 72 h

CCCC[C@@H](C(=O)N[C@@H](CC(=O)O)C(=O)N[C@@H](Cc1cccc2ccccc12)C(N)=O)N(C)C(=O)[C@H](Cc1c[nH]c2ccccc12)NC(=O)CCNC(=O)CC(O)CNC(=O)CC(O)CNC(=O)CN1CCN(CC(=O)O)CCN(CC(=O)O)CCN(CC(=O)O)CC1 (stereo partly shown) [[^177Lu]Lu-2, metal not drawn]
tissue to tissue ratio at 4 h [1]: 17
tissue uptake at 4 h [1, 6]: 32.1 ± 4.05 %ID/g
tissue uptake at 4 h ([1]; uptake in A431-mock xenografts): 0.22 ± 0.06 %ID/g
tissue uptake at 4 h ([1]; uptake in blood): 0.03 ± 0.01 %ID/g
tissue uptake at 4 h ([1]; uptake in femur): 0.22 ± 0.15 %ID/g
tissue uptake at 4 h ([1]; uptake in heart): 0.07 ± 0.02 %ID/g
tissue uptake at 4 h ([1]; uptake in intestine): 0.6 ± 0.12 %ID/g
tissue uptake at 4 h ([1]; uptake in kidneys): 1.96 ± 0.29 %ID/g
tissue uptake at 4 h ([1]; uptake in liver): 1.43 ± 0.18 %ID/g
tissue uptake at 4 h ([1]; uptake in lung): 0.22 ± 0.06 %ID/g
tissue uptake at 4 h ([1]; uptake in muscle): 0.06 ± 0.03 %ID/g
tissue uptake at 4 h ([1]; uptake in pancreas): 0.72 ± 0.14 %ID/g
tissue uptake at 4 h ([1]; uptake in spleen): 0.96 ± 0.3 %ID/g
tissue uptake at 4 h ([1]; uptake in stomach): 4.3 ± 0.95 %ID/g
improvement in tumor-to-kidney ratio versus [177Lu]Lu-DOTA-MGS5 [2]: more than 2 fold
tissue uptake at 4 h ([3]; uptake in A431-CCK2R xenograft): 0.39 %ID/g
tissue uptake at 4 h ([3]; uptake in A431-mock xenograft): 0.16 %ID/g
tissue uptake at 4 h ([3]; uptake in blood): 0.02 %ID/g
tissue uptake at 4 h ([3]; uptake in femur): 0.09 %ID/g
tissue uptake at 4 h ([3]; uptake in heart): 0.04 %ID/g
tissue uptake at 4 h ([3]; uptake in lung): 0.2 %ID/g
tissue uptake at 4 h ([3]; uptake in pancreas): 0.05 %ID/g
tissue uptake at 4 h ([3]; uptake in stomach): 0.09 %ID/g
tissue to tissue ratio at 1 h (in vivo; Tumor-to-blood ratio): 38.9
tissue to tissue ratio at 24 h (in vivo; Tumor-to-blood ratio): 3240
tissue to tissue ratio at 72 h (in vivo; Tumor-to-blood ratio): 4860
tissue to tissue ratio at 168 h (in vivo; Tumor-to-blood ratio): 241
tissue to tissue ratio at 1 h (in vivo; Tumor-to-kidney ratio): 19.8
tissue to tissue ratio at 24 h (in vivo; Tumor-to-kidney ratio): 25.5
tissue to tissue ratio at 72 h (in vivo; Tumor-to-kidney ratio): ~17
tissue to tissue ratio at 168 h (in vivo; Tumor-to-kidney ratio): 4
tissue to tissue ratio at 1 h (in vivo; Tumor-to-stomach ratio): 10.4
tissue to tissue ratio at 24 h (in vivo; Tumor-to-stomach ratio): 9.2
tissue to tissue ratio at 72 h (in vivo; Tumor-to-stomach ratio): ~6
tissue to tissue ratio at 168 h (in vivo; Tumor-to-stomach ratio): 1.4
tissue uptake at 1 h (in vivo; [6]): 56.3 ± 9.14 %ID/g
tissue uptake at 24 h (in vivo; [6]): 33.6 ± 2.95 %ID/g
tissue uptake at 72 h (in vivo; [6]): 12.5 ± 0.96 %ID/g
tissue uptake at 168 h (in vivo; [6]): 1.23 ± 0.53 %ID/g
tissue uptake at 1 h (in vivo; uptake in blood): 1.45 ± 0.3 %ID/g
tissue uptake at 168 h (in vivo; uptake in blood): 0.01 %ID/g
tissue uptake at 1 h (in vivo; uptake in femur): 0.23 ± 0.05 %ID/g
tissue uptake at 24 h (in vivo; uptake in femur): 0.05 ± 0.01 %ID/g
tissue uptake at 72 h (in vivo; uptake in femur): 0.03 ± 0.01 %ID/g
tissue uptake at 168 h (in vivo; uptake in femur): 0.04 ± 0.02 %ID/g
tissue uptake at 1 h (in vivo; uptake in heart): 0.62 ± 0.12 %ID/g
tissue uptake at 24 h (in vivo; uptake in heart): 0.05 ± 0.01 %ID/g
tissue uptake at 72 h (in vivo; uptake in heart): 0.02 %ID/g
tissue uptake at 168 h (in vivo; uptake in heart): 0.02 %ID/g
tissue uptake at 1 h (in vivo; uptake in intestine): 1 ± 0.34 %ID/g
tissue uptake at 24 h (in vivo; uptake in intestine): 0.16 ± 0.02 %ID/g
tissue uptake at 72 h (in vivo; uptake in intestine): 0.08 %ID/g
tissue uptake at 168 h (in vivo; uptake in intestine): 0.03 %ID/g
tissue uptake at 1 h (in vivo; uptake in kidneys): 2.84 ± 0.42 %ID/g
tissue uptake at 24 h (in vivo; uptake in kidneys): 1.32 ± 0.23 %ID/g
tissue uptake at 72 h (in vivo; uptake in kidneys): 0.72 ± 0.1 %ID/g
tissue uptake at 1 h (in vivo; uptake in liver): 0.95 ± 0.12 %ID/g
tissue uptake at 24 h (in vivo; uptake in liver): 0.38 ± 0.08 %ID/g
tissue uptake at 72 h (in vivo; uptake in liver): 0.18 ± 0.01 %ID/g
tissue uptake at 168 h (in vivo; uptake in liver): 0.06 ± 0.01 %ID/g
tissue uptake at 1 h (in vivo; uptake in lung): 4.33 ± 0.87 %ID/g
tissue uptake at 24 h (in vivo; uptake in lung): 0.09 ± 0.02 %ID/g
tissue uptake at 72 h (in vivo; uptake in lung): 0.06 ± 0.01 %ID/g
tissue uptake at 168 h (in vivo; uptake in lung): 0.02 ± 0.01 %ID/g
tissue uptake at 1 h (in vivo; uptake in muscle): 0.22 ± 0.05 %ID/g
tissue uptake at 24 h (in vivo; uptake in muscle): 0.03 %ID/g
tissue uptake at 72 h (in vivo; uptake in muscle): 0.01 %ID/g
tissue uptake at 168 h (in vivo; uptake in muscle): 0.01 ± 0.01 %ID/g
tissue uptake at 1 h (in vivo; uptake in pancreas): 0.85 ± 0.14 %ID/g
tissue uptake at 24 h (in vivo; uptake in pancreas): 0.41 ± 0.08 %ID/g
tissue uptake at 72 h (in vivo; uptake in pancreas): 0.28 ± 0.04 %ID/g
tissue uptake at 168 h (in vivo; uptake in pancreas): 0.16 ± 0.04 %ID/g
tissue uptake at 1 h (in vivo; uptake in spleen): 0.54 ± 0.08 %ID/g
tissue uptake at 24 h (in vivo; uptake in spleen): 0.19 ± 0.03 %ID/g
tissue uptake at 72 h (in vivo; uptake in spleen): 0.13 ± 0.02 %ID/g
tissue uptake at 168 h (in vivo; uptake in spleen): 0.09 ± 0.04 %ID/g
tissue uptake at 1 h (in vivo; uptake in stomach): 5.43 ± 1.05 %ID/g
tissue uptake at 24 h (in vivo; uptake in stomach): 3.66 ± 0.38 %ID/g
tissue uptake at 72 h (in vivo; uptake in stomach): 2.28 ± 0.33 %ID/g
tissue uptake at 168 h (in vivo; uptake in stomach): 0.88 ± 0.12 %ID/g
uptake in A431-CCK2R xenografts ([4]; female, BALB/c nude, iv, 20 pmol, 1 h): ~ 56 % IA/g
Tumor-to-kidney ratio [4, 7]: 17.3
Tumor-to-stomach ratio [4, 7]: 5.5
uptake in A431-CCK2R xenografts [4, 7]: ~ 13 % IA/g
uptake in kidneys [4, 7]: below 1 % IA/g
decrease of kidney uptake after 24 h versus 1 h p.i. [4]: ~ 54%
drop of uptake in A431-CCK2R xenografts after 24 h versus 1 h p.i. [4]: ~ 40%
improvement in tumor uptake in comparison with [177Lu]Lu-PP-F11N [4]: 4 fold
reduction of stomach uptake at 24 h p.i. versus 1 h p.i. [4]: ~ 33%
cumulative absorbed radiation dose, kidneys [5]: < 5 Gy
cumulative absorbed radiation dose, stomach [5]: < 10 Gy
